Experimental data taken from patent US12534742B2, “Compound for regulating gene editing efficiency and application thereof” (Shanghai Institute of Organic Chemistry, Chinese Academy of …, priority 2018, dated 2026).
pIC50: −log10 of the molar value.

Molecular target: CRISPR/Cas9 from Streptococcus pyogenes (SpyCas9) (Streptococcus pyogenes serotype M1, UniProt Q99ZW2)
Test: cell-based
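Further: Cell-based reporter with a SpyCas9 target site placed in EGFP, where NHEJ repair of the cut restores the reading frame, read-out is the share of EGFP-positive cells, lowered by inhibitors.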

Sequence of CRISPR/Cas9 from Streptococcus pyogenes (SpyCas9) (Q99ZW2 whole entry): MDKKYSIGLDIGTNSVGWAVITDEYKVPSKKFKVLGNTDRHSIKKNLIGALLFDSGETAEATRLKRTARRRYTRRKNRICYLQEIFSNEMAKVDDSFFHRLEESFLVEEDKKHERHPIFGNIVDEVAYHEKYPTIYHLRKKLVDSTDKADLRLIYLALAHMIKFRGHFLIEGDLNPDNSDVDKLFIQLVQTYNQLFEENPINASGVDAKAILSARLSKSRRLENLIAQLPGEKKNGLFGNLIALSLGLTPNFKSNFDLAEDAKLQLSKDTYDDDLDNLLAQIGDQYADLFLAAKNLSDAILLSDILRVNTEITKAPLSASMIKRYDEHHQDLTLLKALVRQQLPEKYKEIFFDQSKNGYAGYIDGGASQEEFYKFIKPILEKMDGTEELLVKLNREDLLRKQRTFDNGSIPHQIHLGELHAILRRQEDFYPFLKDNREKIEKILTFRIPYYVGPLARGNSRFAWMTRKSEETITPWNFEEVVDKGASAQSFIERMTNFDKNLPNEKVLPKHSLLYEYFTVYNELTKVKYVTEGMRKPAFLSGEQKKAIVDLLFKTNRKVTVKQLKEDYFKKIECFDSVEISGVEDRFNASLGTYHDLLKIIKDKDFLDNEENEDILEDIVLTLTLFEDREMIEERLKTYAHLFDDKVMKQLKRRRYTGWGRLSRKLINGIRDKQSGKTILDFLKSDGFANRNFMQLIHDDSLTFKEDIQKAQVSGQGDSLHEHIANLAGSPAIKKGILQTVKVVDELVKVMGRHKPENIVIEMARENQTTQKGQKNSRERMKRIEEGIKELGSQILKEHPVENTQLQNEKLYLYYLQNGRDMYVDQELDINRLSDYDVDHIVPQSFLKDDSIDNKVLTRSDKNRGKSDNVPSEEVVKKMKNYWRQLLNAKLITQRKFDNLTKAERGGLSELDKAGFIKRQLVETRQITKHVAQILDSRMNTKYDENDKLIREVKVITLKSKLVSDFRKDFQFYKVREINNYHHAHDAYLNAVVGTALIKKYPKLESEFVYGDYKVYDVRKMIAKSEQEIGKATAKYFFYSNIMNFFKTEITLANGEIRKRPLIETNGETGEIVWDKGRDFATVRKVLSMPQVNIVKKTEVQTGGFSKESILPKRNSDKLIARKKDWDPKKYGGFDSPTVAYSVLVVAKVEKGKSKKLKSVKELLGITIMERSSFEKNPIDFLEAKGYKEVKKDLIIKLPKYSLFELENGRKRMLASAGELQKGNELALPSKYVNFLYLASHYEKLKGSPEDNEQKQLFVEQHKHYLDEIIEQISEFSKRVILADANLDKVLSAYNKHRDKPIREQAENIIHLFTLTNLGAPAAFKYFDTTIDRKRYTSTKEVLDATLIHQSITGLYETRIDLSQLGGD
From the text: The CRISPR/Cas9 recognition site was inserted into the EGFP coding sequence so that the downstream sequence of the CRISPR/Cas9 recognition site was inside the box. The EGFP sequence was cleaved by Cas9 to produce double-strand breaks (DSBs), which would repair one of the two DNA repair mechanisms in the cell: non-homologous end joining (NHEJ) or homologous directed repair (HDR). The insertion or deletion introduced by NHEJ would restore the open reading frame of EGFP, thus activating EGFP fluorescence (FIG. 1).

Row | SMILES | pIC50
1 | CSc1ccc(NC(=O)/C=C/c2ccccc2)cc1 [Compound 860] | < 4.00
2 | O=C(/C=C/c1ccccc1Br)c1ccccc1 [Compound 127] | 4.00 to 5.00
3 | C#CCCOc1cccc(/C=C/S(=O)(=O)F)c1 [Compound 119] | 5.00 to 6.00
4 | O=C(/C=C/c1ccccc1)N1CCN(Cc2ccccc2)CC1 [Compound 845] | < 4.00
5 | CCN(Cc1ccccc1)S(=O)(=O)/C=C/c1ccccc1 [Compound 873] | < 4.00
6 | CCC1(O)C(=O)OCc2c1cc1n(c2=O)Cc2cc3ccccc3nc2-1 (centres unmarked) [Compound 874] | < 4.00
7 | O=C(/C=C/c1ccccc1)Nc1cccnc1 [Compound 862] | < 4.00
8 | CN(C(=O)/C=C/c1ccccc1)c1ccccc1 [Compound 863] | < 4.00
9 | O=C(O)/C=C/c1cccc(O)c1 [Compound 801] | < 4.00
10 | O=C(/C=C/c1ccc2c(c1)OCO2)c1ccccc1 [Compound 886] | < 4.00
11 | CC(=O)/C=C/c1cc2c(cc1Br)OCO2 [Compound 889] | < 4.00
12 | COC(=O)/C=C/c1ccc(O)cc1 [Compound 804] | < 4.00
13 | C=CS(C)(=O)=O [Compound 830] | < 4.00
14 | C/C(C=O)=C\c1ccccc1 [Compound 827] | < 4.00
15 | Cc1cccc(C2CCCN2S(=O)(=O)F)c1 (centres unmarked) [Compound 884] | < 4.00
16 | C=C(C)C(=O)N(CC)CC [Compound 894] | < 4.00
17 | NC(=O)/C=C/c1ccccc1 [Compound 851] | < 4.00
18 | O=C1CC(c2ccccc2O)Oc2ccccc21 (centres unmarked) [Compound 816] | < 4.00
19 | O=S(=O)(/C=C/c1ccccc1)N1CCCCC1 [Compound 872] | < 4.00
20 | O=C(/C=C/c1ccccc1)c1ccc(Cl)cc1 [Compound 105] | 4.00 to 5.00
21 | CN(c1ccccc1)S(=O)(=O)F [Compound 883] | < 4.00
22 | CCN(CC)C(=O)/C=C/c1ccccc1 [Compound 842] | < 4.00

Row | SMILES | pIC50
23 | C/C(O)=C(\C#N)C(=O)Nc1ccc(C(F)(F)F)cc1 [Compound 837] | < 4.00
24 | NS(=O)(=O)/C=C/c1ccccc1 [Compound 865] | < 4.00
25 | COc1ccc(COCCCCC2=C3CCC(C)CC3CC2=O)cc1 (centres unmarked) [Compound 897] | < 4.00
26 | O=C(/C=C/c1ccccc1)N1CCCC1 [Compound 855] | < 4.00
27 | O=C(/C=C/c1ccc(O)cc1)c1ccccc1 [Compound 12] | 4.00 to 5.00
28 | O=S(=O)(/C=C/c1ccccc1)N1CCN(Cc2ccccc2)CC1 [Compound 869] | < 4.00
29 | O=C(/C=C/c1ccccc1)Nc1ccc([N+](=O)[O-])cc1 [Compound 861] | < 4.00
30 | O=S(=O)(/C=C/c1ccccc1)Oc1ccc(Br)cc1 [Compound 880] | < 4.00
31 | O=S(=O)(/C=C/c1ccccc1)N1CCOCC1 [Compound 864] | < 4.00
32 | Cc1ccc(=O)n(-c2ccccc2)c1 [Compound 836] | < 4.00
33 | CC(C)(C)OC(=O)N1CCN(S(=O)(=O)/C=C/c2ccccc2)CC1 [Compound 866] | < 4.00
34 | COc1ccc(/C=C/S(=O)(=O)c2ccc(Cl)cc2)cc1 [Compound 892] | < 4.00
35 | O=C(/C=C/c1cccc(Cl)c1)c1cccc(Cl)c1 [Compound 895] | < 4.00
36 | CC1CC(C)CN(S(=O)(=O)/C=C/c2ccccc2)C1 (centres unmarked) [Compound 870] | < 4.00
37 | CC(C)c1ccc(OS(=O)(=O)/C=C/c2ccccc2)cc1 [Compound 878] | < 4.00
38 | CN(C)c1ccc(/C=C/C(=O)c2ccccc2)cc1 [Compound 887] | < 4.00
39 | Oc1cc(O)c2c(c1)O[C@H](c1ccc(O)c(O)c1)[C@@H](O)C2 [Compound 814] | < 4.00
40 | O=C(/C=C/c1ccc(Br)cc1)c1ccccc1 [Compound 101] | 4.00 to 5.00
41 | O=C(/C=C/c1cccc(Br)c1)c1cccc(Br)c1 [Compound 896] | < 4.00
42 | O=C(/C=C/c1cccc(Cl)c1)c1ccccc1 [Compound 104] | 4.00 to 5.00
43 | COc1cc(/C=C/C(=O)CC(=O)/C=C/c2ccc(O)c(OC)c2)ccc1O [Compound 75] | 4.00 to 5.00
44 | O=C(/C=C/c1ccccc1)NC1CC1 [Compound 854] | < 4.00
